One may read the IC50 as the point on the concentration scale where inhibition reaches its midpoint.

The values that follow come from patent US6215002A, “Pyrrolopyrrolone derivatives as inhibitors of neutrophil elastase” (priority 1996, dated 2001).

Where a name gives a salt, the structure may show the parent alone.

For this test, the target named is T1, human neutrophil elastase (Homo sapiens, UniProt P08246).
T1 sequence (P08246 30-267): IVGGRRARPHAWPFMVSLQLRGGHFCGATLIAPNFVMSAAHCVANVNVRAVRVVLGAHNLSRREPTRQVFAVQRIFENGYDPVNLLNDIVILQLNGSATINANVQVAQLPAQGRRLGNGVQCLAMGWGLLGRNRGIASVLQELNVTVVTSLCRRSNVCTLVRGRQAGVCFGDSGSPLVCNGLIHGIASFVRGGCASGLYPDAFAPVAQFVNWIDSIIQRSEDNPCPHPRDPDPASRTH
Kind of test: In vitro assay of human neutrophil elastase (HNE). The format is biochemical. The conditions noted are these: 118 nM purified human neutrophil elastase, pH 8.6, 15 min incubation at 30° C., MeO-succinyl-alanyl-alanyl-prolyl-valyl-p-nitroanilide substrate; read-out: HNE IC50. In a few lines: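 Residual activity was taken as the 10 min rate of absorbance rise at 405 nm after adding 0.6 mM MeO-succinyl-AAPV-p-nitroanilide. Curve fitting of activity against concentration gave IC50.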

For `CC(C)[C@H]1C(=O)N(S(C)(=O)=O)[C@H]2CCN(S(=O)(=O)c3ccc(CN(C)C)cc3)[C@H]12` (relative stereo) [Example 197, rel-(3R,3aR,6aS)-4-(4-Dimethylaminomethyl-benzenesulfonyl)-3-isopropyl-1-methanesulfonyl-hexahydro-pyrrolo[3,2-b]pyrrol-2-one hydrochloride], the IC50 was found to be 153 nM.

As to `CCC[C@H]1C(=O)N(S(C)(=O)=O)[C@H]2CCN(C(=O)CCN(CC)CC)[C@H]12` (relative stereo) [Example 91, rel-(3R,3aR,6aS)-4-(3-Diethylamino-propionyl)-1-methanesulfonyl-3-propyl-hexahydro-pyrrolo-3,2-b]pyrrol-2-one hydrochloride], the IC50 is 64 nM.

`CCCCS(=O)(=O)N1C(=O)[C@H](CCC)[C@@H]2[C@@H]1CCN2C(=O)CCN1CCCCC1` (relative stereo) [Example 163, rel-(3R,3aR,6aS)-1-(Butane-1-sulfonyl)-4-(3-piperidin-1-yl-propionyl)-3-propyl-hexahydro-pyrrolo[3,2-b]pyrrol-2-one DL-tartrate]: the IC50 was 103 nM.

On to `CCC[C@H]1C(=O)N(S(=O)(=O)CC)[C@H]2CCN(C(=O)CCN3CCCCC3)[C@H]12` (relative stereo) [Example 160, rel-(3R,3aR,6aS)-1-Ethanesulfonyl-4-(3-piperidin-1-yl-propionyl)-3-propyl-hexahydro-pyrrolo[3,2-b]pyrrol-2-one DL-tartrate], for which the IC50 is 119 nM.

Regarding `CCC[C@H]1C(=O)N(S(C)(=O)=O)[C@H]2CCN(C(=O)CCCN3CCOCC3)[C@H]12` (relative stereo) [Example 47, rel-(3R,3aR,6aS)-1-Methanesulfonyl-4-(4-morpholin-4-yl-butyryl)-3-propyl-hexahydro-pyrrolo[3,2-b]pyrrol-2-one], the IC50 was found to be 109 nM.

On to `CCC[C@H]1C(=O)N(S(C)(=O)=O)[C@H]2CCN(C(=O)/C=C/C(=O)O)[C@H]12` (relative stereo) [Example 129, rel-4-(4-Methanesulfonyl-5-oxo-6R-propyl-hexahydro-(3aS,6aR)-pyrrolo[3,2-b]pyrrol-1-yl)-oxo-but-2-E-enoic acid], for which the IC50 came to 14 nM.

Regarding `CCC[C@H]1C(=O)N(S(C)(=O)=O)[C@H]2CCN(S(=O)(=O)c3cccc([N+](=O)[O-])c3)[C@H]12` (relative stereo) [Example 222, rel-(3R,3aR,6aS)-1-Methanesulfonyl-4-(3-nitro-benzenesulfonyl)-3-propyl-hexahydro-pyrrolo[3,2-b]pyrrol-2-one], the IC50 came to 107 nM.

Regarding `CCC[C@H]1C(=O)N(S(=O)(=O)c2ccc3ccccc3c2)[C@H]2CCN(S(=O)(=O)CCCN3CCN(C)CC3)[C@H]12` (relative stereo) [Example 14, rel-(3R,3aR,6aS)-4-[3-(4-Methyl-piperazin-1-yl)-propane-1-sulfonyl-1-(naphthalene-2-sulfonyl)-3-propyl-hexahydro-pyrrolo[3,2-b]pyrrol-2-one], the IC50 came to 193 nM.

With `CCC[C@H]1C(=O)N(S(=O)(=O)c2ccc3ccccc3c2)[C@H]2CCN(C(=O)CCc3ccccn3)[C@H]12` (relative stereo) [Example 48, rel-(3R,3aR,6aS)-1-(Naphthalene-2-sulfonyl)-3-propyl-4-(3-pyridin-2yl-propionyl)-hexahydro-pyrrolo[3,2-b]pyrrol-2-one], the IC50 stood at 122 nM.

Consider `CCC[C@H]1C(=O)N(S(C)(=O)=O)[C@H]2CCN(C(=O)CCCCCCCCCN(CC)CC)[C@H]12` (relative stereo) [Example 65, rel-(3R,3aR,6aS)-4-(10-Diethylamino-decanoyl)-1-methanesulfonyl-3-propyl-hexahydro-pyrrolo[3,2-b]pyrrol-2-one DL-tartrate], for which the IC50 was 66 nM.

On to `CCC[C@H]1C(=O)N(S(C)(=O)=O)[C@H]2CCN(S(=O)(=O)c3ccc(C(=O)NCCN4CCCCC4)cc3)[C@H]12` (relative stereo) [Example 121, rel-4-(4-Methanesulfonyl-5-oxo-6R-propyl-hexahydro-(3aS,6aR)-pyrrolo[3,2-b]pyrrole-1-sulfonyl)-N-(2-piperidin-1-yl-ethyl)-benzamide hydrochloride], for which the IC50 amounted to 14 nM.

On to `CCC[C@H]1C(=O)N(S(C)(=O)=O)[C@H]2CCN(C(=O)CCN3CCCCC3)[C@H]12` [Example 116, (3R,3aR,6aS)-1-Methanesulfonyl-4-(3-piperidin-1-yl-propionyl)-3-propyl-hexahydro-pyrrolo[3,2-b]pyrrol-2-one hydrochloride], for which the IC50 is 417 nM.

For the compound `CCC[C@H]1C(=O)N(S(C)(=O)=O)[C@H]2CCN(S(=O)(=O)c3ccc(OC)cc3)[C@H]12` (relative stereo) [Example 220, rel-(3R,3aR,6aS)-1-Methanesulfonyl-4-(4-methoxy-benzenesulfonyl)-3-propyl hexahydro-pyrrolo[3,2-b]pyrrol-2-one], the IC50 turned out to be 12 nM.

With `CC[C@H]1C(=O)N(S(=O)(=O)c2ccc3ccccc3c2)[C@H]2CCN(S(=O)(=O)CCCN3CCOCC3)[C@H]12` (relative stereo) [Example 35, rel-(3R,3aR,6aS)-3-Ethyl-4-(3-morpholin-4-yl)-propane-1-sulfonyl)-1-(naphthalene-2-sulfonyl)-hexahydro-pyrrolo[3,2-b]pyrrol-2-one meso-tartrate], the IC50 is 697 nM.

For the compound `C=CC[C@H]1C(=O)N(S(=O)(=O)c2ccccc2)[C@H]2CCN(C(=O)OCc3ccccc3)[C@H]12` (relative stereo) [Example 45, rel-(3aS,6R,6aR)-6-Allyl-4-benzenesulfonyl-5-oxo-hexahydro-pyrrolo[3,2-b]pyrrole-1-carboxylic acid benzyl ester], the IC50 worked out at 531 nM.

For the compound `C=CC[C@H]1C(=O)N(S(=O)(=O)c2cccc(S(=O)(=O)N(C)C)c2)[C@H]2CCN(C(=O)OCc3ccccc3)[C@H]12` (relative stereo) [Example 37, rel-(3aS,6R,6aR)-6-Allyl-4-(3-dimethylsulfamoyl-benzenesulfonyl)-5-oxo-hexahydro-pyrrolo[3,2-b]pyrrole-1-carboxylic acid benzyl ester], the half-maximal inhibitory concentration (IC50) amounted to 138 nM.

For the compound `CCC[C@H]1C(=O)N(S(=O)(=O)c2cccc3ccccc23)[C@H]2CCN(S(=O)(=O)CCCN3CCOCC3)[C@H]12` (relative stereo) [Example 36, rel-(3R,3aR,6aS)-4-(3-Morpholin-4-yl-propane-1-sulfonyl)-1-(naphthalene-1-sulfonyl)-3-propyl-hexahydro-pyrrolo[3,2-b]pyrrol-2-one], the IC50 was 125 nM.

As to `CCCCOc1ccc(S(=O)(=O)N2C(=O)[C@H](CCC)[C@@H]3[C@@H]2CCN3C(=O)CCCCCN2CCCCC2)cc1` (relative stereo) [Example 204, rel-(3R,3aR,6aS)-1-(4-Butoxy-benzenesulfonyl)-4-(6-piperidin-1-yl-hexanoyl)-3-propyl-hexahydro-pyrrolo[3,2-b]pyrrol-2-one DL-tartrate], the IC50 worked out at 98 nM.

Consider `CCC[C@H]1C(=O)N(S(C)(=O)=O)[C@H]2CCN(C(=O)CCCCCCCCCN(C)C)[C@H]12` (relative stereo) [Example 67, rel-(3R,3aR,6aS)-4-(10-Dimethylamino-decanoyl)-1-methanesulfonyl-3-propyl-hexahydro-pyrrolo[3,2-b]pyrrol-2-one DL-tartrate], for which the IC50 worked out at 43 nM.

Consider `CCC[C@H]1C(=O)N(S(C)(=O)=O)[C@H]2CCN(S(=O)(=O)c3ccc([N+](=O)[O-])cc3)[C@H]12` (relative stereo) [Example 211, rel-(3R,3aR,6aS)-1-Methanesulfonyl-4-(4-nitro-benzenesulfonyl)-3-propyl-hexahydro-pyrrolo[3,2-b]pyrrol-2-one], for which the IC50 is 140 nM.

On to `CCC[C@H]1C(=O)N(S(=O)(=O)c2ccccc2)[C@H]2CCN(S(=O)(=O)CCCN3CCCCC3)[C@H]12` (relative stereo) [Example 208, rel-(3R,3aR,6aS)-1-Benzenesulfonyl-4-(3-piperidin-1-yl-propane-1-sulfonyl)-3-propyl-hexahydro-pyrrolo[3,2-b]pyrrol-2-one DL-tartrate], for which the IC50 worked out at 54 nM.

In the case of `CCC[C@H]1C(=O)N(S(C)(=O)=O)[C@H]2CCN(C(=O)Cn3ccccc3=O)[C@H]12` (relative stereo) [Example 112, rel-(3R,3aR,6aS)-1-Methanesulfonyl-4-[(2-oxo-2H-pyridin-1-yl)-acetyl]-3-propyl-hexahydro-pyrrolo[3,2-b]pyrrol-2-one], the IC50 stood at 222 nM.

As to `CCC[C@H]1C(=O)N(S(C)(=O)=O)[C@H]2CCN(C(=O)CCN(C)C)[C@H]12` (relative stereo) [Example 90, rel-(3R,3aR,6aS)-4-(3-Dimethylamino-propionyl)-1-methanesulfonyl-3-propyl-hexahydro-pyrrolo[3,2-b]pyrrol-2-one hydrochloride], the IC50 turned out to be 305 nM.

Consider `CCC[C@H]1C(=O)N(S(C)(=O)=O)[C@H]2CCN(S(=O)(=O)c3cc(C(F)(F)F)cc(C(F)(F)F)c3)[C@H]12` (relative stereo) [Example 224, rel-(3R,3aR,6aS)-4-(3,5-Bis-trifluoromethyl-benzenesulfonyl)-1-methanesulfonyl-3-propyl-hexahydro-pyrrolo[3,2-b]pyrrol-2-one], for which the IC50 stood at 410 nM.

For the compound `CCC[C@@H]1C(=O)N(S(=O)(=O)c2ccc3ccccc3c2)[C@@H]2CCN(C(=O)CCN3CCCCC3)[C@@H]12` [Example 54, (3S,3aS,6aR)-1-(Naphthalene-2-sulfonyl)-4-(3-piperidin-1-yl-propionyl)-3-propyl-hexahydro-pyrrolo[3,2-b]pyrrol-2-one hydrochloride], the IC50 came out at 120 nM.
